Assay results as given in ChEMBL document CHEMBL2069287, “Salidroside protects human erythrocytes against hydrogen peroxide-induced apoptosis” (J Nat Prod, 2012).
Calls of active or inactive are those of the source. The calls are words filed in the database; no cut-off is given here.

How the values were obtained:
Erythrocyte [1] = experiment: Cytoprotective activity in human erythrocytes assessed as decrease in H202-induced caspase-3-mediated FAM-DEVD-FMK cleavage at 100 uM after 24 hrs by fluorometric assay (reference value: 51.22%); assay type: functional; set-up: scale not given: the % may be the effect or the level left
Erythrocyte [2] = experiment: Cytoprotective activity in human erythrocytes assessed as decrease in ionomycin-induced cytosolic free calcium level at 300 uM after 24 hrs by Fluo4 staining-based assay (reference value: 57.79%); assay type: functional; set-up: scale not given: the % may be the effect or the level left
Erythrocyte [3] = experiment: Cytoprotective activity against H202-induced eryptosis in human erythrocytes assessed as very early apoptotic cells at 100 uM after 24 hrs by PE-annexinV/calcein flow cytometric assay (reference value: 27.15%); assay type: functional
[4] = Antioxidant activity in human erythrocytes assessed as decrease in H202-induced ROS production at 100 uM after 24 hrs by DCF-based flow cytometric analysis (reference value: 68.32%); assay type: functional, Erythrocyte; set-up: scale not given: the % may be the effect or the level left
Erythrocyte [5] = experiment: Cytoprotective activity against H202-induced eryptosis in human erythrocytes assessed as viable cells at 300 uM after 24 hrs by PE-annexinV/calcein flow cytometric assay (reference value: 63.38%); assay type: functional; settings: read-out: Activity
[6] = Induction of eryptosis in human erythrocytes assessed as viable cells at 100 uM after 24 hrs by PE-annexinV/calcein flow cytometric assay (reference value: 97.21%); assay type: cell-based, Erythrocyte; settings: read-out: Activity
[7] = Induction of eryptosis in human erythrocytes assessed as very early apoptotic cells at 300 uM after 24 hrs by PE-annexinV/calcein flow cytometric assay (reference value: 0.2%); assay type: cell-based; settings: erythrocyte
Erythrocyte [8] = experiment: Cytoprotective activity in human erythrocytes assessed as protection against H202-induced hemolysis from 2 to 24 hrs by spectrophotometry; assay type: functional, cell-based
Erythrocyte [9] = experiment: Cytoprotective activity against H202-induced eryptosis in human erythrocytes assessed as late apoptotic cells at 100 uM after 24 hrs by PE-annexinV/calcein flow cytometric assay (reference value: 0.13%); assay type: functional
[10] = Induction of eryptosis in human erythrocytes assessed as viable cells at 300 uM after 24 hrs by PE-annexinV/calcein flow cytometric assay (reference value: 97.21%); assay type: cell-based, Erythrocyte; settings: read-out: Activity
Erythrocyte [11] = experiment: Cytoprotective activity in human erythrocytes assessed as decrease in STS-mediated caspase3 activation at 100 uM after 24 hrs by fluorimetric assay (reference value: 58.78%); assay type: functional; set-up: scale not given: the % may be the effect or the level left
Erythrocyte [12] = experiment: Cytoprotective activity against H202-induced eryptosis in human erythrocytes assessed as viable cells at 100 uM after 24 hrs by PE-annexinV/calcein flow cytometric assay (reference value: 63.38%); assay type: functional; settings: read-out: Activity
[13] = Induction of eryptosis in human erythrocytes assessed as early apoptotic cells at 100 uM after 24 hrs by PE-annexinV/calcein flow cytometric assay (reference value: 2.59%); assay type: cell-based; settings: erythrocyte
Erythrocyte [14] = experiment: Cytoprotective activity in human erythrocytes assessed as decrease in H202-induced caspase-3-mediated FAM-DEVD-FMK cleavage after 24 hrs by fluorometric assay; assay type: functional, cell-based
[15] = Toxicity in human erythrocytes assessed as hemolysis up to 800 uM after 2 hrs by spectrophotometry; assay type: cell-based; settings: erythrocyte
[16] = Induction of eryptosis in human erythrocytes assessed as early apoptotic cells at 300 uM after 24 hrs by PE-annexinV/calcein flow cytometric assay (reference value: 2.59%); assay type: cell-based; settings: erythrocyte
Erythrocyte [17] = experiment: Cytoprotective activity in human erythrocytes assessed as decrease in H202-induced caspase-3-mediated FAM-DEVD-FMK cleavage at 300 uM after 24 hrs by fluorometric assay (reference value: 51.22%); assay type: functional; set-up: scale not given: the % may be the effect or the level left
[18] = Induction of eryptosis in human erythrocytes assessed as late apoptotic cells at 100 uM after 24 hrs by PE-annexinV/calcein flow cytometric assay (reference value: 0%); assay type: cell-based; settings: erythrocyte
Erythrocyte [19] = experiment: Cytoprotective activity in human erythrocytes assessed as decrease in STS-mediated caspase3 activation at 300 uM after 24 hrs by fluorimetric assay (reference value: 58.78%); assay type: functional; set-up: scale not given: the % may be the effect or the level left
Erythrocyte [20] = experiment: Cytoprotective activity in human erythrocytes assessed as decrease in caspase-3-mediated FAM-DEVD-FMK cleavage at 300 uM after 24 hrs by fluorometric assay (reference value: 0.28%); assay type: functional; set-up: scale not given: the % may be the effect or the level left
Erythrocyte [21] = experiment: Cytoprotective activity against H202-induced eryptosis in human erythrocytes assessed as early apoptotic cells at 300 uM after 24 hrs by PE-annexinV/calcein flow cytometric assay (reference value: 9.34%); assay type: functional
Erythrocyte [22] = experiment: Antioxidant activity in human erythrocytes assessed as decrease in H202-induced ROS production after 24 hrs by DCF-based flow cytometric analysis; assay type: functional, cell-based
[23] = Toxicity in human erythrocytes assessed as hemolysis up to 400 uM after 24 hrs by spectrophotometry; assay type: cell-based; settings: erythrocyte
Erythrocyte [24] = experiment: Cytoprotective activity against H202-induced apoptosis in human erythrocytes assessed as decrease in cytosolic free calcium level after 24 hrs by PE-annexinV/Fluor4 flow cytometric analysis; assay type: functional, cell-based
[25] = Antioxidant activity in human erythrocytes assessed as decrease in H202-induced ROS production at 300 uM after 24 hrs by DCF-based flow cytometric analysis (reference value: 68.32%); assay type: functional, Erythrocyte; set-up: scale not given: the % may be the effect or the level left
Erythrocyte [26] = experiment: Cytoprotective activity in human erythrocytes assessed as decrease in ionomycin-induced cytosolic free calcium level at 100 uM after 24 hrs by Fluo4 staining-based assay (reference value: 1.76%); assay type: functional; set-up: scale not given: the % may be the effect or the level left
Erythrocyte [27] = experiment: Cytoprotective activity against H202-induced eryptosis in human erythrocytes assessed as early apoptotic cells at 100 uM after 24 hrs by PE-annexinV/calcein flow cytometric assay (reference value: 9.34%); assay type: functional
Erythrocyte [28] = experiment: Cytoprotective activity in human erythrocytes assessed as protection against H202-induced hemolysis at 50 to 100 uM from 2 to 24 hrs by spectrophotometry; assay type: functional, cell-based
[29] = Induction of eryptosis in human erythrocytes assessed as very early apoptotic cells at 100 uM after 24 hrs by PE-annexinV/calcein flow cytometric assay (reference value: 0.2%); assay type: cell-based; settings: erythrocyte
Erythrocyte [30] = experiment: Cytoprotective activity against H202-induced apoptosis in human erythrocytes assessed as decrease in phosphatidylserine externalization after 24 hrs by PE-annexinV/Fluor4 flow cytometric analysis; assay type: functional, cell-based
Erythrocyte [31] = experiment: Cytoprotective activity in human erythrocytes assessed as decrease in caspase-3-mediated FAM-DEVD-FMK cleavage at 100 uM after 24 hrs by fluorometric assay (reference value: 0.28%); assay type: functional; set-up: scale not given: the % may be the effect or the level left
Erythrocyte [32] = experiment: Cytoprotective activity against H202-induced eryptosis in human erythrocytes assessed as very early apoptotic cells at 300 uM after 24 hrs by PE-annexinV/calcein flow cytometric assay (reference value: 27.15%); assay type: functional
Erythrocyte [33] = experiment: Cytoprotective activity against H202-induced eryptosis in human erythrocytes assessed as late apoptotic cells at 300 uM after 24 hrs by PE-annexinV/calcein flow cytometric assay (reference value: 0.13%); assay type: functional
[34] = Induction of eryptosis in human erythrocytes assessed as late apoptotic cells at 300 uM after 24 hrs by PE-annexinV/calcein flow cytometric assay (reference value: 0%); assay type: cell-based; settings: erythrocyte

**Q.** Which Activity (Erythrocyte [1]) does the source give for OC[C@H]1O[C@@H](OCCc2ccc(O)cc2)[C@H](O)[C@@H](O)[C@@H]1O [SALIDROSIDE] here?
**A.** The Activity was 42.12%.

**Q.** What about the Activity (Erythrocyte [2]) of the same compound?
**A.** Its Activity is 46.24%.

**Q.** What about the Activity (Erythrocyte [3]) of the same compound?
**A.** Its Activity is 17.01%.

**Q.** And the Activity [4]?
**A.** The Activity was 58.82%.

**Q.** What about the viability at 300 µM (Erythrocyte [5]) of the same compound?
**A.** The viability at 300 µM was 74.7%.

**Q.** What about the viability at 24 h, 100 µM [6] of the same compound?
**A.** Its viability at 24 h, 100 µM is 97.5%.

**Q.** What about the Activity [7] of the same compound?
**A.** The Activity was 0.04%.

**Q.** What about the Activity (Erythrocyte [8]) of the same compound?
**A.** Its Activity is “Dose-dependent effect”.

**Q.** And the Activity (Erythrocyte [9])?
**A.** The Activity was 0.18%.

**Q.** And the viability at 24 h, 300 µM [10]?
**A.** Its viability at 24 h, 300 µM is 97.5%.

**Q.** What about the Activity (Erythrocyte [11]) of the same compound?
**A.** Its Activity is 49.38%.

**Q.** And the viability at 100 µM (Erythrocyte [12])?
**A.** Its viability at 100 µM is 70.4%.

**Q.** And the Activity [13]?
**A.** Its Activity is 2.38%.

**Q.** What about the Activity (Erythrocyte [14]) of the same compound?
**A.** Its Activity is “Dose-dependent effect”.

**Q.** What about the Activity [15] of the same compound?
**A.** The Activity was “Non-toxic”.

**Q.** And the Activity [16]?
**A.** The Activity was 2.46%.

**Q.** What about the Activity (Erythrocyte [17]) of the same compound?
**A.** Its Activity is 37.71%.

**Q.** And the Activity [18]?
**A.** Its Activity is 0%.

**Q.** What about the Activity (Erythrocyte [19]) of the same compound?
**A.** The Activity was 47.16%.

**Q.** And the Activity (Erythrocyte [20])?
**A.** Its Activity is 0.22%.

**Q.** What about the Activity (Erythrocyte [21]) of the same compound?
**A.** The Activity was 11.08%.

**Q.** What about the Activity (Erythrocyte [22]) of the same compound?
**A.** Its Activity is “Dose-dependent effect”.

**Q.** And the Activity [23]?
**A.** The Activity was “Non-toxic”.

**Q.** And the Activity (Erythrocyte [24])?
**A.** Its Activity is “Dose-dependent effect”.

**Q.** What about the Activity [25] of the same compound?
**A.** Its Activity is 51.39%.

**Q.** And the Activity (Erythrocyte [26])?
**A.** Its Activity is 48.77%.

**Q.** What about the Activity (Erythrocyte [27]) of the same compound?
**A.** The Activity was 12.38%.

**Q.** And the Activity (Erythrocyte [28])?
**A.** Its Activity is “Active”.

**Q.** What about the Activity [29] of the same compound?
**A.** Its Activity is 0.14%.

**Q.** What about the Activity (Erythrocyte [30]) of the same compound?
**A.** The Activity was “Dose-dependent effect”.

**Q.** What about the Activity (Erythrocyte [31]) of the same compound?
**A.** Its Activity is 0.23%.

**Q.** And the Activity (Erythrocyte [32])?
**A.** Its Activity is 14.16%.

**Q.** And the Activity (Erythrocyte [33])?
**A.** The Activity was 0.11%.

**Q.** What about the Activity [34] of the same compound?
**A.** Its Activity is 0%.
